Measured values reported in ChEMBL document CHEMBL4359902, “Development of novel chromeno[4,3-c]pyrazol-4(2H)-one derivates bearing sulfonylpiperazine as antitumor inhibitors targeting PI3Kα” (Eur J Med Chem, 2019).

How the values were obtained:
HCT-116 [1] = experiment: Cell cycle arrest in human HCT116 cells assessed as accumulation at S phase at 0.5 uM measured after 24 hrs by propidium iodide staining based flow cytometry analysis (reference value: 50.12 %); format: functional
HCT-116 [2] = experiment: Induction of apoptosis in human HCT116 cells assessed as early apoptotic cells at 0.25 uM measured after 24 hrs by annexin-v-FITC/propidium iodide staining based FACScan flow cytometry analysis (reference value: 10.0 %); format: functional

O=c1oc2ccccc2c2nn(CN3CCN(S(=O)(=O)c4ccc(Cl)c([N+](=O)[O-])c4)CC3)cc12
Activity (HCT-116 [1]): 39.53%
Activity (HCT-116 [2]): 16.1%
